In the SangsterLogP compilation one finds logD and logP data, which are given here for 48 compounds.

A short description of data set [1]: method code SF-RC, from DOI: 10.1016/j.nucmedbio.2009.09.005, PMID: 20447558. The following applies: pH 7.4.
Test in data set [2]: not given
This is another data set of the same source.

Test in data set [3]: not given
This is another data set of the same source.

A short description of data set [4]: method code SF-RC, from DOI: 10.1002/syn.20147. The settings on record: pH 7.4.
Test in data set [5]: not given
The source holds these as a separate data set.

Data set [6] can be described thus: method code SF-HPLC, from DOI: 10.1023/a:1015968113838, PMID: 3247280. The settings on record: pH 7.4.
Data set [7] is described as follows: method code SF-AS, from Lippold, B.; Lichey, J. (1984). Transport of drugs through lipophilic polymer membranes. II. Influence of the partition and diffusion coefficients. Acta pharmaceutica technologica, 30(2)140-154.
A short description of data set [8]: method code SF-HPLC, from PMID: 18557421. The settings on record: pH 1.0.
The nature of data set [9]: method code SF-AS, from DOI: 10.1584/jpestics.8.69.
Data set [10] in a line: method code SF-AS, from DOI: 10.1021/jf990946w, PMID: 10888534.
Test in data set [11]: not given
The source holds these as a separate data set.

Data set [12] in a line: method code SF-MB, from DOI: 10.1016/0378-5173(83)90017-0. The following applies: pH 3.5.
Test in data set [13]: not given
This is another data set of the same source.

Test in data set [14]: not given
This is another data set of the same source.

A short description of data set [15]: method code SF-GLC, from DOI: 10.1021/es60128a001.
Data set [16] is described as follows: method code SF-HPLC, from DOI: 10.1021/je049947x.
A short description of data set [17]: method code SF, from DOI: 10.1023/a:1007583422634, PMID: 11028945. The settings on record: pH 7.4.
Data set [18] in a line: method code SF-AS, from DOI: 10.1155/2011/965826, PMID: 22295208.
Test in data set [19]: not given
This is another data set of the same source.

Data set [20] in a line: method code SF-AS, from Kofitsekpo, W. (1980). An experimental evaluation of the log P of oxamniquine - a new schistosomicide. Drugs under experimental and clinical research, 6(5)421-426.
Test in data set [21]: not given
This is another data set of the same source.

Test in data set [22]: not given
This is another data set of the same source.

The nature of data set [23]: method code SF-AS, from DOI: 10.1081/jlc-100104900. The following applies: pH 1.0.
Data set [24] in a line: method code SF-RC, from DOI: 10.1016/j.nucmedbio.2009.03.005, PMID: 19647167. The following applies: pH 7.4.
Test in data set [25]: not given
The source holds these as a separate data set.

Data set [26] can be described thus: method code SF-HPLC, from DOI: 10.1016/0378-5173(95)00102-o.
Data set [27] can be described thus: method code SF-AS, from DOI: 10.1021/jm00001a010, PMID: 7837239. The settings on record: pH 7.0.
Data set [28] in a line: method code SF-SF, from DOI: 10.1016/j.ejps.2010.09.003, PMID: 20854904. The following applies: pH 10.0.
Test in data set [29]: not given
The source holds these as a separate data set.

Test in data set [30]: not given
The source holds these as a separate data set.

Data set [31] is described as follows: method code SF-GLC, from DOI: 10.1002/etc.5620080702.
Data set [32] in a line: method code SF, from DOI: 10.1016/0223-5234(96)89550-x.
The nature of data set [33]: from Maeno, S., Miura, I., Masuda, K., & Nagata, T. (1990). Mepanipyrim(KIF-3535), a new pyrimidine fungicide. In Brighton Crop Protection Conference, Pests and Diseases - 1990 (Vol. 2, pp. 415-422). ….
Test in data set [34]: not given
The source holds these as a separate data set.

Data set [35] can be described thus: method code SF-RC, from PMID: 7826467.
Data set [36] in a line: method code SF, from DOI: 10.1016/0048-3575(89)90162-4.
Test in data set [37]: not given
This is another data set of the same source.

Test in data set [38]: not given
The source holds these as a separate data set.

The nature of data set [39]: method code SF, from Kim, K.; Kim, J.; Kim, Y. (1997). Study on physicochemical properties of pesticides. II. Hanguk Nonghwa Hakhoe Chi, 40(1)76-79.
Test in data set [40]: not given
The source holds these as a separate data set.

The nature of data set [41]: method code SF-RC, from Bracha, P.; O'Brien, D. (1966). The relation between physical properties and uptake of insecticides by eggs of the large milkweed bug. J Econ Entomol, 59(5)1255-1264.
Data set [42] in a line: method code SF-AS, from DOI: 10.1021/jm00384a018, PMID: 3806586.
The nature of data set [43]: method code SF-RC, from DOI: 10.1016/s0968-0896(99)00108-x, PMID: 10530922. The settings on record: pH 7.2.
Test in data set [44]: not given
This is another data set of the same source.

Data set [45] in a line: method code SF, from DOI: 10.1248/cpb.18.708. The settings on record: pH 6.4.
Test in data set [46]: not given
This is another data set of the same source.

Test in data set [47]: not given
The source holds these as a separate data set.

The structures appear in SMILES notation.

A word on the logD: it is lipophilicity at a set pH, counting ionised and neutral species. High values mean a more lipophilic compound, low ones a more hydrophilic compound. For `CC(C1CCCCC1)N(C)C(=O)c1ccc[nH]1` (stereo not drawn), in data set [1], the logD was determined as 1.48.
With `CCCOC(=O)c1ccccc1C(=O)OCCC`, the logP was determined as 4.05.
Take `COc1ccc(CN2CCNCC2)c(OC)c1OC`: in data set [2], the logP was 1.04.
Compound `CCCCCCCCc1ccccc1` came in with a logP in data set [3] of 6.5.
Compound `Cc1cc(C#N)cc(C#Cc2csc(C)n2)c1` showed a logD in [4] of 3.4.
Take `O=C1c2ccccc2C(=O)C1c1ccccc1`: in [5], the logP was 2.5.
Turning to `CC(C)(C)C(=O)OCC1OC(n2cc(I)c(=O)[nH]c2=O)CC1O` (stereo not drawn), in [6], the pH-dependent lipophilicity (logD) stood at 1.34.
Take `Cc1ccc(Cl)c(OCC(O)CNC(C)(C)C)c1` (stereo not drawn): the logP in data set [7] came out at 2.8.
With `COc1c(O)cc2c(c1O)C1OC(CO)C(O)C(O)C1OC2=O` (stereo not drawn), the logD in [8] is -1.06.
For the compound `ClC(Cl)C(c1ccccc1)c1ccccc1`, the logP in data set [9] was 4.51.
Regarding `O=c1c(O)c(-c2cc(O)c(O)c(O)c2)oc2cc(O)cc(O)c12`, the logP in data set [10] was found to be 0.72.
The compound `CC(C)(C)C(=O)CC(C(O)C(C)(C)C)n1cncn1` (stereo not drawn) had a logP in [11] of 1.95.
In turn, `CCCCCC(=O)N[C@@H]1C(=O)N2[C@@H]1SC(C)(C)[C@@H]2C(=O)O` came in with a pH-dependent lipophilicity (logD) in [12] of 2.37.
Take `CCOC(=O)CCCn1c(=O)oc2ccccc2c1=O`: the logP in [13] worked out at 0.63.
As for `CCN(CC)CCNC(=O)c1cc(Br)c(N)cc1OC`, in [14], the logP worked out at 2.62.
Compound `CCOP(=S)(OCC)SC(CCl)N1C(=O)c2ccccc2C1=O` (stereo not drawn) showed a logP in data set [15] of 4.69.
The compound `Cc1cccc(C)c1N(Cn1cccn1)C(=O)CCl` yielded a logP in [16] of 2.22.
In turn, `CCCCCOC(=O)[C@@H](N)Cc1ccc(O)c(O)c1` had a logD in data set [17] of 1.5.
As to `CC(=O)OC[C@H]1O[C@@H](n2cnc(N)nc2=O)[C@H](OC(C)=O)[C@@H]1OC(C)=O`, the logP in data set [18] is -0.61.
In turn, `O=c1c(O)c(-c2ccc(O)c(O)c2)oc2cc(O)cc(O)c12` gave a logP in [19] of 2.13.
In turn, `CC(C)NCC1CCc2cc(CO)c([N+](=O)[O-])cc2N1` (stereo not drawn) registered a logP in [20] of 2.24.
For `Clc1ccc(C(c2ccc(Cl)cc2)C(Cl)Cl)cc1`, the logP in data set [21] came out at 5.19.
As to `Nc1ccc(C=Cc2ccc(N)cc2S(=O)(=O)O)c(S(=O)(=O)O)c1`, the logP in data set [22] was -1.7.
The compound `CC(C(=O)O)c1ccc(C(=O)c2ccccc2)s1` (stereo not drawn) yielded a logD in data set [23] of 2.86.
In the case of `CO/N=C1/C=C(C#Cc2cccc(F)n2)CCC1`, the logD in [24] was 2.11.
Consider `CC1CCCC(C)N1NC(=O)c1ccc(Cl)c(S(N)(=O)=O)c1` (stereo not drawn), for which, in data set [25], the logP amounted to 1.18.
In data set [26], `CCCCCCCCOC(=O)c1cccnc1` displayed a logP of 4.71.
On to `C=CCn1cnc2c(=O)[nH]c(Nc3ccccc3)nc21`, for which the logD in data set [27] amounted to 1.75.
Compound `CN1CCN(CCC(=O)c2ccccc2)CC1` gave a logD in [28] of 1.12.
`COc1cc(Cc2cnc(N)nc2N)c(I)c(OC)c1OC` gave a logP in data set [29] of 1.79.
With `S=C(CCCCC1CCSS1)NCCN1CCOCC1` (stereo not drawn), in data set [30], the logP was 2.9.
In [31], `Clc1ccc(C2OC2c2ccccc2)cc1` (stereo not drawn) had a logP of 4.54.
Consider `O=C(Nc1ccn(C2CSC(CO)O2)c(=O)n1)c1cccnc1` (stereo not drawn), for which the logP in data set [32] came out at 0.84.
Compound `CC#Cc1cc(C)nc(Nc2ccccc2)n1` yielded a logP in data set [33] of 3.42.
For `Cc1ccc2ccc3ccccc3c2c1`, in data set [34], the logP came to 5.15.
Turning to `COc1ccc2c(C)cc(=O)n3c(C)cc1c23`, in [35], the logP amounted to 2.84.
For `OC1(c2cc(Cl)ccc2Cl)CCCCC1n1cncn1` (stereo not drawn), the logP in data set [36] stood at 3.24.
For `O=C(OCc1ccccc1)c1ccc(O)cc1`, the logP in data set [37] came to 3.56.
`COc1cccc(N2CCN(CCN(C)C)C2=O)c1`: in [38], the logP was 1.76.
Regarding `CCOP(=S)(OCC)Oc1cc(C(F)(F)F)nn1-c1ccccc1`, the logP in data set [39] stood at 5.24.
In the case of `Cc1cc(Cc2cc(Cl)ccc2Cl)c(Cl)cc1Cl`, the logP in [40] amounted to 6.38.
Compound `CNC(=O)Oc1cc(C(C)C)cc(C(C)C)c1` displayed a logP in [41] of 3.55.
In turn, `CC(O)C1=CCN(NC(=O)c2ccccc2)CC1` (stereo not drawn) gave a logP in [42] of 0.04.
In data set [43], `CSc1ccc(COCCCc2c[nH]cn2)cc1` showed a logD of 1.88.
The compound `CC(C)Cn1cnc2c(N)nc3ccccc3c21` had a logP in data set [44] of 2.89.
In data set [45], `Cc1cc(C)cc(NS(=O)(=O)c2ccc(N)cc2)c1` gave a logD of 2.52.
In [46], `CCn1cc(C(=O)O)c(=O)c2cc([N+](=O)[O-])c(NCCO)cc21` showed a logP of 0.98.
Turning to `Cc1c2ccccc2cc2ccccc12`, the logP in data set [47] is 4.96.
